Results: patent US9402878B2, “Depsipeptide and uses thereof” (priority 2012, dated 2016)
Values after ≈ are worked out from the molar mass of the structure shown. Read-outs that look alike come from different tables or passages of the source.

Columns and labels:
[1] = test system: Enterococcus faecium; assay: MIC against contemporary clinical isolates; conditions: for % S (CLSI % susceptible) / MIC Range: n = 10, 50% VRE
[2] = test system: Staphylococcus aureus MRSA; assay: MIC against contemporary clinical isolates; conditions: for % S (CLSI % susceptible) / MIC Range: MRSA (n = 20); for MIC50 / MIC90: Staphylococcus aureus, MRSA
[3] = test system: Staphylococcus aureus Daptomycin^NS; assay: MIC against contemporary clinical isolates; conditions: Daptomycin^NS (n = 5)
[4] = test system: Streptococcus agalactiae; assay: MIC against contemporary clinical isolates; conditions: for MIC50 / MIC90: Streptococcus agalactiae; for % S (CLSI % susceptible) / MIC Range: n = 10
[5] = test system: Staphylococcus aureus Linezolid^R; assay: MIC against contemporary clinical isolates; conditions: Linezolid^R (n = 5)
[6] = test system: Staphylococcus aureus VISA; assay: MIC against contemporary clinical isolates; conditions: for MIC50 / MIC90: Staphylococcus aureus, VISA; for % S (CLSI % susceptible) / MIC Range: VISA (n = 10)
[7] = test system: Staphylococcus aureus MSSA; assay: MIC against contemporary clinical isolates; conditions: for % S (CLSI % susceptible) / MIC Range: MSSA (n = 20); for MIC50 / MIC90: Staphylococcus aureus, MSSA
[8] = test system: Streptococcus pyogenes; assay: MIC against contemporary clinical isolates; conditions: for MIC50 / MIC90: Streptococcus pyogenes; for % S (CLSI % susceptible) / MIC Range: n = 10
[9] = test system: Viridans Group Streptococci; assay: MIC against contemporary clinical isolates; conditions: n = 5
[10] = test system: Enterococcus faecalis; assay: MIC against contemporary clinical isolates; conditions: for % S (CLSI % susceptible) / MIC Range: n = 10, 50% VRE
[11] = test system: Streptococcus pneumoniae; assay: MIC against contemporary clinical isolates; conditions: for MIC50 / MIC90: Streptococcus pneumoniae, PRSP; for % S (CLSI % susceptible) / MIC Range: n = 20, 28.6% PSSP, 33.3% PISP, 38.1% PRSP
[12] = test system: Staphylococcus epidermidis; assay: MIC against contemporary clinical isolates; conditions: for MIC50 / MIC90: Staphylococcus epidermidis; for % S (CLSI % susceptible) / MIC Range: n = 20
[13] = target: CYP2D6 (Homo sapiens (Human), UniProt P10635); assay: in vitro; conditions: liver microsomes, pH 7.4
CYP2D6, sequence (P10635 whole entry, looked up): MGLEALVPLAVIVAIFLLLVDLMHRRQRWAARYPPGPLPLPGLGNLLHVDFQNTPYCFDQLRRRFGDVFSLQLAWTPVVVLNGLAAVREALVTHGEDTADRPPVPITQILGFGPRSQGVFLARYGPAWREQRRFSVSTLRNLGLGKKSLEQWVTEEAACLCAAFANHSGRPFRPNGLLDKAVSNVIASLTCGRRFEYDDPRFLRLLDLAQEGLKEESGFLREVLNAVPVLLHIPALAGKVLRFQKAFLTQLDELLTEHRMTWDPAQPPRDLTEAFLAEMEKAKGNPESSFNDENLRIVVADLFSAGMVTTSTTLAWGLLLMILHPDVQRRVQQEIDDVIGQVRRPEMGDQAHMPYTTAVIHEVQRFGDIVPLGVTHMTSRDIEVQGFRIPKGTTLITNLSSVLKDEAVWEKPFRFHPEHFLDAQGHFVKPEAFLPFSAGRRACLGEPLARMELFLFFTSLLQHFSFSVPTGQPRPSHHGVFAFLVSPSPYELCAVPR

[14] = test system: Streptococcus pneumoniae ATCC 6301 (UNT012-2); assay: Immunocompetent mouse pneumonia model; assay type: in vivo
Procedure: The compound of Formula (II) was then evaluated against Streptococcus pneumoniae in an immunocompetent mouse pneumonia model to determine the compound's potential to treat acute respiratory infections. Briefly, CD-1 mice were infected intranasally with Streptococcus pneumoniae ATCC 6301 (UNT012-2) (1.5×10^6 CFU/mouse). The compound was delivered intravenously at 24 and 36 hours post-infection, and at doses ranging from 0.5 to 10 mg/kg/dose. At 48 hours post infection, treated mice were euthanized, lungs aseptically removed and processed for CFU titers

[15] = test system: Bacillus anthracis; assay type: cell-based
[16] = test system: S. aureus MRSA ATCC 33591; assay: Mouse septicemia protection assay; assay type: in vivo; conditions: CD-1 female mice, IV, QD single dose one hour post infection, survival after 48 hrs
Procedure: CD-1 female mice were infected with 0.5 mL of bacterial suspension (3.28×10^7 CFU/mouse) via intraperitoneal injection, a concentration that achieves at least 90% mortality within 48 hours after infection. At one hour post infection, mice were treated with the compound intravenously with single doses and the results are shown in Table 12.

## CC(=O)NC[C@H]1CN(c2ccc(N3CCOCC3)c(F)c2)C(=O)O1 [Linezolid]
[1]
  MIC50: 2 µg/mL (≈ 5.93 µM)
  MIC90: 2 µg/mL (≈ 5.93 µM)
  % S (CLSI % susceptible): 100.0%
  MIC Range: 1 to 2 µg/mL
[2]
  % S (CLSI % susceptible): 100.0%
  MIC Range: 2 to 4 µg/mL
  MIC50: 2 µg/mL (≈ 5.93 µM)
  MIC90: 4 µg/mL (≈ 11.9 µM)
[3]
  % S (CLSI % susceptible): 80.0%
  MIC Range: 1 to 32 µg/mL
[4]
  MIC50: 1 µg/mL (≈ 2.96 µM)
  MIC90: 1 µg/mL (≈ 2.96 µM)
  % S (CLSI % susceptible): 100.0%
  MIC Range: 0.5-2^ μg/mL
[5]
  % S (CLSI % susceptible): 0.0%
[6]
  MIC50: 2 µg/mL (≈ 5.93 µM)
  MIC90: 2 µg/mL (≈ 5.93 µM)
  % S (CLSI % susceptible): 100.0%
  MIC Range: 1 to 4 µg/mL
[7]
  % S (CLSI % susceptible): 100.0%
  MIC Range: 2 to 4 µg/mL
  MIC50: 2 µg/mL (≈ 5.93 µM)
  MIC90: 4 µg/mL (≈ 11.9 µM)
[8]
  MIC50: 1 µg/mL (≈ 2.96 µM)
  MIC90: 1 µg/mL (≈ 2.96 µM)
  % S (CLSI % susceptible): 100.0%
  MIC Range: 0.5-1^ μg/mL
[9]
  % S (CLSI % susceptible): 100.0%
  MIC Range: 0.5-1^ μg/mL
[10]
  MIC50: 2 µg/mL (≈ 5.93 µM)
  MIC90: 2 µg/mL (≈ 5.93 µM)
  % S (CLSI % susceptible): 100.0%
  MIC Range: 1 to 2 µg/mL
[11]
  MIC50: 1 µg/mL (≈ 2.96 µM)
  MIC90: 1 µg/mL (≈ 2.96 µM)
  % S (CLSI % susceptible): 100.0%
  MIC Range: 0.25 to 1 µg/mL
[12]
  MIC50: 2 µg/mL (≈ 5.93 µM)
  MIC90: 2 µg/mL (≈ 5.93 µM)
  % S (CLSI % susceptible): 100.0%
  MIC Range: 1 to 4 µg/mL

## C=C[C@H]1C[N@@]2CC[C@H]1C[C@@H]2[C@@H](O)c1ccnc2ccc(OC)cc12 [Quinidine]
[13]
  inhibition at 10 min, 0.1 µM: 60.6%
  inhibition at 10 min, 1 µM: 91.7%

## CC1(C)S[C@@H]2[C@H](NC(=O)[C@H](N)c3ccc(O)cc3)C(=O)N2[C@H]1C(=O)O [Amoxicillin]
[14]; 10 mg/kg/dose
  Log10 change from 24 hrs: −3.98 Log10
  Log10 change from 48 hrs: −5.83 Log10
[14]; 10 mg/kg/dose IV at 24 and 36 hours post-infection, lungs at 48 hours
  Mean Log10 CFU: 2.78 Log10 CFU

## C[C@H]1c2cccc(O)c2C(=O)C2=C(O)[C@]3(O)C(=O)C(C(N)=O)=C(O)[C@@H](N(C)C)[C@@H]3[C@@H](O)[C@@H]21 [Doxycycline]
[15]; B. anthracis NR-36
  MIC: 0.06 µg/mL (≈ 0.135 µM)
[15]; B. anthracis NR-38
  MIC: 0.125 µg/mL (≈ 0.281 µM)
[15]; B. anthracis NR-41
  MIC: 0.06 µg/mL (≈ 0.135 µM)
[15]; B. anthracis NR-46
  MIC: 0.125 µg/mL (≈ 0.281 µM)
[15]; B. anthracis NR-411
  MIC: 0.125 µg/mL (≈ 0.281 µM)
[15]; B. anthracis NR-412
  MIC: 0.03 µg/mL (≈ 0.0675 µM)
[15]; B. anthracis NR-413
  MIC: 0.06 µg/mL (≈ 0.135 µM)
[15]; B. anthracis NR-414
  MIC: 0.125 µg/mL (≈ 0.281 µM)
[15]; B. anthracis NR-415
  MIC: 0.06 µg/mL (≈ 0.135 µM)
[15]; B. anthracis NR-3838
  MIC: 0.06 µg/mL (≈ 0.135 µM)

## CN[C@H](CC(C)C)C(=O)N[C@H]1C(=O)N[C@@H](CC(N)=O)C(=O)N[C@H]2C(=O)N[C@H]3C(=O)N[C@H](C(=O)N[C@H](C(=O)O)c4cc(O)cc(O)c4-c4cc3ccc4O)[C@H](O)c3ccc(c(Cl)c3)Oc3cc2cc(c3O[C@@H]2O[C@H](CO)[C@@H](O)[C@H](O)[C@H]2O[C@H]2C[C@](C)(N)[C@H](O)[C@H](C)O2)Oc2ccc(cc2Cl)[C@H]1O [Vancomycin]
[1]
  MIC50: 0.5 µg/mL (≈ 0.345 µM)
  MIC90: > 32 µg/mL
  % S (CLSI % susceptible): 50.0%
[2]
  % S (CLSI % susceptible): 100.0%
  MIC Range: 0.5-2^ μg/mL
  MIC50: 0.5 µg/mL (≈ 0.345 µM)
  MIC90: 1 µg/mL (≈ 0.69 µM)
[3]
  % S (CLSI % susceptible): 40.0%
  MIC Range: 0.5-8^ μg/mL
[4]
  MIC50: 0.5 µg/mL (≈ 0.345 µM)
  MIC90: 0.5 µg/mL (≈ 0.345 µM)
  % S (CLSI % susceptible): 100.0%
  MIC Range: 0.25 to 0.5 µg/mL
[5]
  % S (CLSI % susceptible): 100.0%
  MIC Range: 1 µg/mL (≈ 0.69 µM)
[16]
  PD50: ~2.75 mg/kg
[16]; listed as vancomycin
  PD50: ~2.75 mg/kg
[6]
  MIC50: 4 µg/mL (≈ 2.76 µM)
  MIC90: 8 µg/mL (≈ 5.52 µM)
  % S (CLSI % susceptible): 10.0%
  MIC Range: 1 to 8 µg/mL
[7]
  % S (CLSI % susceptible): 100.0%
  MIC Range: 0.5-1^ μg/mL
  MIC50: 0.5 µg/mL (≈ 0.345 µM)
  MIC90: 1 µg/mL (≈ 0.69 µM)
[8]
  MIC50: 0.25 µg/mL (≈ 0.173 µM)
  MIC90: 0.25 µg/mL (≈ 0.173 µM)
  % S (CLSI % susceptible): 100.0%
  MIC Range: 0.25 µg/mL (≈ 0.173 µM)
[9]
  % S (CLSI % susceptible): 100.0%
  MIC Range: 0.25 to 0.5 µg/mL
[10]
  MIC50: 1 µg/mL (≈ 0.69 µM)
  MIC90: > 32 µg/mL
  % S (CLSI % susceptible): 50.0%
[11]
  MIC50: 0.25 µg/mL (≈ 0.173 µM)
  MIC90: 0.25 µg/mL (≈ 0.173 µM)
  % S (CLSI % susceptible): 100.0%
  MIC Range: 0.12 to 0.5 µg/mL
[12]
  MIC50: 2 µg/mL (≈ 1.38 µM)
  MIC90: 2 µg/mL (≈ 1.38 µM)
  % S (CLSI % susceptible): 100.0%
  MIC Range: 1 to 2 µg/mL

## CCCCCCCCCC(=O)N[C@@H](Cc1c[nH]c2ccccc12)C(=O)N[C@H](CC(N)=O)C(=O)N[C@@H](CC(=O)O)C(=O)N[C@@H]1C(=O)NCC(=O)N[C@@H](CCCN)C(=O)N[C@@H](CC(=O)O)C(=O)N[C@H](C)C(=O)N[C@@H](CC(=O)O)C(=O)NCC(=O)N[C@H](CO)C(=O)N[C@@H]([C@H](C)CC(=O)O)C(=O)N[C@@H](CC(=O)c2ccccc2N)C(=O)O[C@@H]1C [Daptomycin]
[1]
  MIC50: 0.5 µg/mL (≈ 0.309 µM)
  MIC90: 1 µg/mL (≈ 0.617 µM)
  % S (CLSI % susceptible): 100.0%
  MIC Range: 0.5-1^ μg/mL
[2]
  % S (CLSI % susceptible): 100.0%
  MIC Range: 0.12 to 0.25 µg/mL
  MIC50: 0.25 µg/mL (≈ 0.154 µM)
  MIC90: 0.25 µg/mL (≈ 0.154 µM)
[3]
  % S (CLSI % susceptible): 0.0%
  MIC Range: 2 to 8 µg/mL
[4]
  MIC50: 0.12 µg/mL (≈ 0.074 µM)
  MIC90: 0.12 µg/mL (≈ 0.074 µM)
  % S (CLSI % susceptible): 100.0%
  MIC Range: 0.06 to 0.25 µg/mL
[5]
  % S (CLSI % susceptible): 100.0%
  MIC Range: 0.25 to 0.5 µg/mL
[6]
  MIC50: 0.5 µg/mL (≈ 0.309 µM)
  MIC90: 1 µg/mL (≈ 0.617 µM)
  % S (CLSI % susceptible): 100.0%
  MIC Range: 0.25 to 1 µg/mL
[7]
  % S (CLSI % susceptible): 100.0%
  MIC Range: 0.12 to 0.25 µg/mL
  MIC50: 0.25 µg/mL (≈ 0.154 µM)
  MIC90: 0.25 µg/mL (≈ 0.154 µM)
[8]
  MIC50: ≤ 0.03 µg/mL
  MIC90: 0.06 µg/mL (≈ 0.037 µM)
  % S (CLSI % susceptible): 100.0%
  MIC Range: ≦0.03-0.06^ μg/mL
[9]
  % S (CLSI % susceptible): 100.0%
  MIC Range: 0.06 to 0.25 µg/mL
[10]
  MIC50: 0.25 µg/mL (≈ 0.154 µM)
  MIC90: 0.5 µg/mL (≈ 0.309 µM)
  % S (CLSI % susceptible): 90.0%
  MIC Range: 0.12 to 8 µg/mL
[11]
  MIC50: ≤ 0.03 µg/mL
  MIC90: ≤ 0.03 µg/mL
  MIC Range: ≦0.03-0.06^ μg/mL
[12]
  MIC50: 0.12 µg/mL (≈ 0.074 µM)
  MIC90: 0.25 µg/mL (≈ 0.154 µM)
  % S (CLSI % susceptible): 100.0%
  MIC Range: 0.06 to 0.25 µg/mL
